Drawing on patent US12319672B2, “Alpha-D-galactopyranoside derivatives” (Idorsia Pharmaceuticals Ltd, priority 2019, dated 2025), this text covers IC50 for 25 molecules.

One test deals with human Gal-3 (hGal-3) (Homo sapiens (Human), UniProt P17931). In words: Competitive binding assay: binding of biotinylated hGal-3 to microplate-adsorbed asialofetuin (ASF). Conditions: Activity on hGal-3; mean values of several measurements. In outline: (§1)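 For hGal-1, a variant with all six cysteines replaced by serines is preferred. Either galectin, biotinylated at 300-1000 ng/mL, competes with compound for microplate-bound ASF over 3 h at 4° C; peroxidase/ABTS detection gives IC50, averaged.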
human Gal-3 (hGal-3), sequence (P17931 whole entry): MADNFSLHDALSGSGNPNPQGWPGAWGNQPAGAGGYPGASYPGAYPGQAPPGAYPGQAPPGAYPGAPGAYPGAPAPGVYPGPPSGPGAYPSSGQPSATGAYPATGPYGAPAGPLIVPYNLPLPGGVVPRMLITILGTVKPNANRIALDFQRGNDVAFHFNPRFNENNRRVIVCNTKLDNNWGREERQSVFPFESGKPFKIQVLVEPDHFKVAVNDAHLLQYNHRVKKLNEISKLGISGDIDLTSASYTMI

The target of the next test is human Gal-1 (hGal-1). The experiment in a line: Competitive binding assay: binding of biotinylated hGal-1 to microplate-adsorbed asialofetuin (ASF). Conditions: Activities on hGal-1; mean values of several measurements. In outline:
as §1

Structures are written as SMILES.

human Gal-1 (hGal-1), sequence (P09382 2-135 limits assumed): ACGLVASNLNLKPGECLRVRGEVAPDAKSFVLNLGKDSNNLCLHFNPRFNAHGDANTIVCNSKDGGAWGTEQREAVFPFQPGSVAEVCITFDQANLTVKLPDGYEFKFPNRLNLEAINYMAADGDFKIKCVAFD

Broadly, the IC50 is the concentration that inhibits the measured activity by half. As for `CO[C@@H]1[C@@H](n2cc(-c3ccc(C)c(F)c3F)nn2)[C@@H](O)[C@@H](CO)O[C@@H]1Cc1cc(C(C)(C)C)on1` [Ex 1.195], the concentration for half-maximal inhibition (IC50) at human Gal-3 (hGal-3) turned out to be 0.06 µM; at human Gal-1 (hGal-1), 3.33 µM.

With `CC(C)(C)OC(=O)NC1CCC(c2cc(C[C@H]3O[C@H](CO)[C@H](O)[C@H](n4cc(-c5cc(F)c(F)c(F)c5)nn4)[C@H]3O)no2)CC1` (some centres unmarked) [Ex 1.80], the results for the IC50 on human Gal-3 (hGal-3) and at human Gal-1 (hGal-1) were 0.11 µM and 43.8 µM, respectively.

Take `CCN=S1(=O)CCC(n2cc(C[C@H]3O[C@H](CO)[C@H](O)[C@H](n4cc(-c5cc(F)c(F)c(F)c5)nn4)[C@H]3OC)nn2)CC1` (stereo partly drawn) [Example 4.24, 1-(ethylimino)-4-(4-(((2R,3R,4S,5R,6R)-5-hydroxy-6-(hydroxymethyl)-3-methoxy-4-(4-(3,4,5-trifluorophenyl)-1H-1,2,3-triazol-1-yl)tetrahydro-2H-pyran-2-yl)methyl)-1H-1,2,3-triazol-1-yl)hexahydro-1l6-thiopyran 1-oxide]: the results for the IC50 at human Gal-3 (hGal-3) and on human Gal-1 (hGal-1) were 0.054 µM and 0.31 µM, respectively.

For the molecule `CO[C@@H]1[C@@H](n2cc(-c3cc(F)c(F)c(F)c3)nn2)[C@@H](O)[C@@H](CO)O[C@@H]1Cc1cc(C2CCN(S(=O)(=O)N(C)C)CC2)on1` [Example 3.58, 4-(3-(((2R,3R,4S,5R,6R)-5-hydroxy-6-(hydroxymethyl)-3-methoxy-4-(4-(3,4,5-trifluorophenyl)-1H-1,2,3-triazol-1-yl)tetrahydro-2H-pyran-2-yl)methyl)isoxazol-5-yl)-N,N-dimethylpiperidine-1-sulfonamide], the IC50 amounted to 0.061 µM at human Gal-3 (hGal-3) and 1.87 µM on human Gal-1 (hGal-1).

Turning to `CO[C@@H]1[C@@H](n2cc(-c3ccc(F)c(F)c3F)nn2)[C@@H](O)[C@@H](CO)O[C@@H]1Cc1cn(C(C)(C)C)nn1` [Example 4.46, (2R,3R,4S,5R,6R)-6-((1-(tert-butyl)-1H-1,2,3-triazol-4-yl)methyl)-2-(hydroxymethyl)-5-methoxy-4-(4-(2,3,4-trifluorophenyl)-1H-1,2,3-triazol-1-yl)tetrahydro-2H-pyran-3-ol], the IC50 came out at 0.045 µM at human Gal-3 (hGal-3) and 0.31 µM at human Gal-1 (hGal-1).

`CO[C@@H]1[C@@H](n2cc(-c3cc(F)c(F)c(F)c3)nn2)[C@@H](O)[C@@H](CO)O[C@@H]1Cc1cc(C(C)(C)CN)no1` [Ex 1.316]: the concentration for half-maximal inhibition (IC50) on human Gal-3 (hGal-3) amounted to 0.19 µM; on human Gal-1 (hGal-1), 2.2 µM.

For the molecule `CC(C)(C)c1cc(C[C@H]2O[C@H](CO)[C@H](O)[C@H](n3cc(-c4cc(F)c(F)c(F)c4)nn3)[C@H]2OCC(=O)N2CCOCC2)no1` [Example 2.28, 2-(((2R,3R,4S,5R,6R)-2-((5-(tert-butyl)isoxazol-3-yl)methyl)-5-hydroxy-6-(hydroxymethyl)-4-(4-(3,4,5-trifluorophenyl)-1H-1,2,3-triazol-1-yl)tetrahydro-2H-pyran-3-yl)oxy)-1-morpholinoethan-1-one], the IC50 at human Gal-3 (hGal-3) was found to be 0.11 µM; on human Gal-1 (hGal-1), 2.18 µM.

Turning to `CC(C)(C)OC(=O)N1CCC(C2=NOC(C[C@H]3O[C@H](CO)[C@H](O)[C@H](n4cc(-c5ccc(F)cn5)nn4)[C@H]3O)C2)CC1` (some centres unmarked) [Ex 1.104], the IC50 on human Gal-3 (hGal-3) was 1.84 µM; at human Gal-1 (hGal-1), 0.45 µM.

`CO[C@@H]1[C@@H](n2cc(-c3ccc(C)c(F)c3F)nn2)[C@@H](O)[C@@H](CO)O[C@@H]1Cc1cc([C@@H]2C[C@H]2O)on1` [Ex 1.350]: the IC50 at human Gal-3 (hGal-3) was found to be 0.27 µM; on human Gal-1 (hGal-1), 6.78 µM.

`CO[C@@H]1[C@@H](n2cc(-c3cc(F)c(F)c(F)c3)nn2)[C@@H](O)[C@@H](CO)O[C@@H]1C[C@H]1CN(C2CCN(C(C)=O)CC2)C(=O)O1` [Example 5.06, (S)-3-(1-acetylpiperidin-4-yl)-5-(((2R,3R,4S,5R,6R)-5-hydroxy-6-(hydroxymethyl)-3-methoxy-4-(4-(3,4,5-trifluorophenyl)-1H-1,2,3-triazol-1-yl)tetrahydro-2H-pyran-2-yl)methyl)oxazolidin-2-one]: the IC50 was 0.096 µM on human Gal-3 (hGal-3) and 0.27 µM on human Gal-1 (hGal-1).

On to `OC[C@H]1O[C@H](Cc2cc(C3CCC(O)CC3)on2)[C@H](O)[C@@H](n2cc(-c3cc(F)c(F)c(F)c3)nn2)[C@H]1O` (stereo partly drawn) [Example 2.14, (2R,3R,4R,5R,6R)-2-((5-((1r,4r)-4-hydroxycyclohexyl)isoxazol-3-yl)methyl)-6-(hydroxymethyl)-4-(4-(3,4,5-trifluorophenyl)-1H-1,2,3-triazol-1-yl)tetrahydro-2H-pyran-3,5-diol], for which the figures for the IC50 on human Gal-3 (hGal-3) and at human Gal-1 (hGal-1) were 0.19 µM and 4.58 µM, respectively.

Turning to `CO[C@@H]1[C@@H](n2cc(-c3cc(F)c(F)c(F)c3)nn2)[C@@H](O)[C@@H](CO)O[C@@H]1Cc1cc(C2CCN(S(=O)(=O)N3CCCCC3)CC2)on1` [Example 3.63, (2R,3R,4S,5R,6R)-2-(hydroxymethyl)-5-methoxy-6-((5-(1-(piperidin-1-ylsulfonyl)piperidin-4-yl)isoxazol-3-yl)methyl)-4-(4-(3,4,5-trifluorophenyl)-1H-1,2,3-triazol-1-yl)tetrahydro-2H-pyran-3-ol], the half-inhibitory concentration (IC50) on human Gal-3 (hGal-3) is 0.069 µM; at human Gal-1 (hGal-1), 0.56 µM.

For the molecule `CO[C@@H]1[C@@H](n2cc(-c3cc(F)c(C)c(F)c3)nn2)[C@@H](O)[C@@H](CO)O[C@@H]1Cc1cc(C2CCOCC2)on1` [Ex 1.179], the IC50 was 0.15 µM on human Gal-3 (hGal-3) and 11 µM at human Gal-1 (hGal-1).

Regarding `CO[C@@H]1[C@@H](n2cc(-c3cc(F)c(F)c(F)c3)nn2)[C@@H](O)[C@@H](CO)O[C@@H]1CC1CN(C2CCN(C(=O)CC(C)(C)C)CC2)C(=O)O1` (mixture of isomers) [Example 5.19, (RS)-3-(1-(3,3-dimethylbutanoyl)piperidin-4-yl)-5-(((2R,3R,4S,5R,6R)-5-hydroxy-6-(hydroxymethyl)-3-methoxy-4-(4-(3,4,5-trifluorophenyl)-1H-1,2,3-triazol-1-yl)tetrahydro-2H-pyran-2-yl)methyl)oxazolidin-2-one], the IC50 is 0.1 µM at human Gal-3 (hGal-3) and 1.37 µM at human Gal-1 (hGal-1).

For `CO[C@@H]1[C@@H](n2cc(-c3ccc(C)c(F)c3)nn2)[C@@H](O)[C@@H](CO)O[C@@H]1CC1CC(C2CCN(C(=O)OC(C)(C)C)CC2)=NO1` (some centres unmarked) [Ex 1.136], the IC50 stood at 0.112 µM at human Gal-3 (hGal-3) and 4.77 µM at human Gal-1 (hGal-1).

As to `CO[C@@H]1[C@@H](n2cc(-c3cc(F)c(Cl)c(F)c3)nn2)[C@@H](O)[C@@H](CO)O[C@@H]1CC1CC(C2CCN(C(=O)OC(C)(C)C)CC2)=NO1` (some centres unmarked) [Ex 1.145], the concentration for half-maximal inhibition (IC50) was found to be 0.17 µM at human Gal-3 (hGal-3) and 1.56 µM at human Gal-1 (hGal-1).

As for `CO[C@@H]1[C@@H](n2cc(-c3ccc(C)c(F)c3F)nn2)[C@@H](O)[C@@H](CO)O[C@@H]1Cc1cc(C(C)(O)c2ccccc2)on1` (some centres unmarked) [Ex 1.340], the IC50 at human Gal-3 (hGal-3) is 0.33 µM; on human Gal-1 (hGal-1), 10.4 µM.

Turning to `COC(=O)CO[C@@H]1[C@@H](n2cc(-c3cc(F)c(F)c(F)c3)nn2)[C@@H](O)[C@@H](CO)O[C@@H]1CC1CC(C2CCN(C(=O)OC(C)(C)C)CC2)=NO1` (mixture of isomers) [Example 2.33, tert-butyl 4-((RS)-5-(((2R,3R,4S,5R,6R)-5-hydroxy-6-(hydroxymethyl)-3-(2-methoxy-2-oxoethoxy)-4-(4-(3,4,5-trifluorophenyl)-1H-1,2,3-triazol-1-yl)tetrahydro-2H-pyran-2-yl)methyl)-4,5-dihydroisoxazol-3-yl)piperidine-1-carboxylate], the half-inhibitory concentration (IC50) on human Gal-3 (hGal-3) stood at 0.31 µM; at human Gal-1 (hGal-1) it was 2.45 µM.

For the molecule `CO[C@@H]1[C@@H](n2cc(-c3cc(F)c(F)c(F)c3)nn2)[C@@H](O)[C@@H](CO)O[C@@H]1CC1=NOC(C2CCN(C(C)=O)CC2)C1` (mixture of isomers) [Example 3.40, 1-(4-((RS)-3-(((2R,3R,4S,5R,6R)-5-hydroxy-6-(hydroxymethyl)-3-methoxy-4-(4-(3,4,5-trifluorophenyl)-1H-1,2,3-triazol-1-yl)tetrahydro-2H-pyran-2-yl)methyl)-4,5-dihydroisoxazol-5-yl)piperidin-1-yl)ethan-1-one], the IC50 on human Gal-3 (hGal-3) amounted to 0.31 µM; at human Gal-1 (hGal-1), 1.21 µM.

Consider `CO[C@@H]1[C@@H](n2cc(-c3ccc(F)c(F)c3F)nn2)[C@@H](O)[C@@H](CO)O[C@@H]1Cc1cc(C2(O)CCCC2)on1` [Ex 1.234], for which the values for the IC50 at human Gal-3 (hGal-3) and on human Gal-1 (hGal-1) were 0.057 µM and 1.27 µM, respectively.

Turning to `COc1ccc(C2=NOC(C[C@H]3O[C@H](CO)[C@H](O)[C@H](n4cc(-c5cc(F)c(F)c(F)c5)nn4)[C@H]3O)C2)cc1` (some centres unmarked) [Ex 1.02], the results for the concentration for half-maximal inhibition (IC50) at human Gal-3 (hGal-3) and on human Gal-1 (hGal-1) were 0.49 µM and 53.9 µM, respectively.

For `CC(C)(C)OC(=O)N1CCC(C2=NOC(C[C@H]3O[C@H](CO)[C@H](O)[C@H](n4cc(-c5ccc(C#N)c(F)c5)nn4)[C@H]3O)C2)CC1` (some centres unmarked) [Ex 1.100], the results for the IC50 at human Gal-3 (hGal-3) and at human Gal-1 (hGal-1) were 0.65 µM and 4.9 µM, respectively.

For `CCCS(=O)(=O)N1CCC(n2cc(C[C@H]3O[C@H](CO)[C@H](O)[C@H](n4cc(-c5cc(F)c(F)c(F)c5)nn4)[C@H]3OC)nn2)CC1` [Example 4.09, (2R,3R,4S,5R,6R)-2-(hydroxymethyl)-5-methoxy-6-((1-(1-(propylsulfonyl)piperidin-4-yl)-1H-1,2,3-triazol-4-yl)methyl)-4-(4-(3,4,5-trifluorophenyl)-1H-1,2,3-triazol-1-yl)tetrahydro-2H-pyran-3-ol], the IC50 stood at 0.013 µM at human Gal-3 (hGal-3) and 0.1 µM on human Gal-1 (hGal-1).

For the molecule `CO[C@@H]1[C@@H](n2cc(-c3ccc(Cl)c(F)c3F)nn2)[C@@H](O)[C@@H](CO)O[C@@H]1Cc1cc(C(C)(C)O)on1` [Ex 1.242], the values for the concentration for half-maximal inhibition (IC50) at human Gal-3 (hGal-3) and at human Gal-1 (hGal-1) were 0.068 µM and 2.9 µM, respectively.

For the molecule `CC(C)(C)c1cc(C[C@H]2O[C@H](CO)[C@H](O)[C@H](n3cc(-c4cc(F)c(F)c(F)c4)nn3)[C@H]2OCC(=O)N2CC[C@@H](O)C2)no1` [Example 2.39, 2-(((2R,3R,4S,5R,6R)-2-((5-(tert-butyl)isoxazol-3-yl)methyl)-5-hydroxy-6-(hydroxymethyl)-4-(4-(3,4,5-trifluorophenyl)-1H-1,2,3-triazol-1-yl)tetrahydro-2H-pyran-3-yl)oxy)-1-((R)-3-hydroxypyrrolidin-1-yl)ethan-1-one], the IC50 is 0.11 µM at human Gal-3 (hGal-3) and 6.68 µM on human Gal-1 (hGal-1).
